According to patent publication US20120263780A1, “Carbohydrate Entrapped Active Agent Delivery Composition and Articles Using the Same” (priority 2009, published 2012):

Columns and labels:
[1] = test system: Staphylococcus aureus (ATCC #6538); test: Zone of inhibition testing on agar plates; format: cell-based; conditions: for Observed Zone of Inhibition (mm): 7 day old sample; for Zone (mm): thymol powder in well
Procedure: The samples prepared above were cut into 10 mm-diameter circular sections of thymol-treated and untreated material. These samples were placed on a freshly streaked sample of staphylococcus aureus on trypticase soy agar. After 24 hours incubation at 37° C., plates were measured for zones of inhibitions surrounding the samples. To calculate the zone of inhibition, the test material was brought into contact with a known population of test microorganisms on an agar plate for a specified period of time. At the end of the contact time the area of inhibited colony formation around the test material was measured. The size of this area of no growth was a measure of leaching of the antimicrobial agent from the test material. In this procedure, the test material was cut into small discs and placed on an agar plate evenly spread with a test microorganism. The plates were incubated for 24 hours at ideal growth conditions. Following incubation, the diameter of the circle of no growth around the disc was measured. The zone of inhibition was reported as the difference between the sample disc diameter and the average of the measured no growth zone diameters. Materials and Reagents • Microorganisms: frozen stock of Staphylococcus aureus (ATCC 6538). • Mueller-Hinton agar (MHA) plates or equivalent plated media. Prepare following manufacturer's directions. Store at 4±2° C. Alternatively pre-made plates can be utilized. • Mueller-Hinton broth (MHB) or equivalent liquid media. Prepare following manufacturers directions. Store at 4±2° C. Alternately pre-made media can be utilized. • Sterile cotton swabs or equivalent. • Sterile forceps. • Positive control disc: Vanocymicin susceptibility discs (6 mm), 30 μg/disc (BD and Company; Sparks, Md.). • Test material, cut into 8 mm discs. • Calipers or other measuring device. • Other ancillary lab supplies. 2. Staphylococcus aureus (ATCC 6538) is inoculated from an overnight plate or MHB into 5 ml of sterile MHB in a 35° C. incubator for 18-24 hrs. 3. The overnight culture is then adjusted using MHB to the 0.5 McFarland barium sulphate standards (1×10^8 CFU/ml) or approximately 0.15 OD with a 0.2 cm light path at 660 nanometer. 1. Pre-warm, to room temperature, MHA plates. […] 3. Moisten a sterile applicator swab in the standardized cell suspension and express any excess moisture by rotating the swab against the glass above the liquid in the tube. Inoculate the entire surface of each plate, inoculating the surface completely in three different directions to ensure uniform growth. 5. Store the inoculated plates at room temperature for 10-15 minutes to allow the medium to absorb the moisture from the inoculum. 6. Apply discs of test material to the surface of the inoculated medium with a sterile forceps and tap them to ensure that they are in complete contact with the agar surface. A positive control (vancomycin disc) and negative control (uncoated disc) should be used on each plate. 7. Invert the inoculated plates and incubate them at 35° C. for 18-24 hours. 8. Examine the plates from the back, viewed against a black background and illuminated with reflected light. With calipers, measure the diameter of each zone of inhibition to the nearest whole millimeter. Zone of Inhibition=diameter of no growth area−diameter of disc First, exemplary Delivery Compositions 1 and 2 were created. A sucrose blend was melted on a stove top to prepare a carbohydrate matrix. An active agent was added to the molten sucrose to provide a 2% loading of thymol. After the mixture was melted, analysis was performed to determine the amount of thymol retained within the sucrose. Delivery Composition 1 contained approximately 0.72 wt. % thymol and Delivery Composition 2 contained approximately 0.74 wt. % thymol. Both Delivery Compositions 1 and 2 were placed in a well in a media with a plate inoculated with Staphylococcus aureus (ATCC #6538) and a zone of inhibition for each sample was measured as described above. […]

[2] = test system: Staphylococcus aureus (ATCC #6538); test: Shake flask test ASTM E2149-01, anti-bacterial activity of thymol-treated coform substrates; format: cell-based; conditions: 7 day old sample, 1 hour exposure
Procedure: Five sections of coform material approximately 17 cm by 17 cm were prepared and weighed to determine the amount of thymol needed for loading of thymol at a weight percent of 0.3%, 0.6% and 1.0%. The determined quantity of thymol to provide thymol as a percentage was placed in an excess (39.0 grams) of ethanol to be dissolved. The coform substrates were placed into a plastic bag and the ethanol/thymol mixture was added. Using a cylindrical glass jar rolled on the outside of the sealed plastic bag, the sheets were rolled to evenly express the liquid throughout the coform squares. The coform was then removed from the bag and placed in a fume hood to allow the ethanol to evaporate off. The remaining dry sheets containing thymol were removed from the hood after one hour and placed in a dry plastic bag. Samples were aged 7 days and tested for anti-bacterial activity. To determine the anti-bacterial activity of the samples after 7 days, the shake flask test of ASTM […]-01 “Standard Test Method for Determining the Antimicrobial Activity of Immobilized Antimicrobial Agents Under Dynamic Contact Conditions” was used. Approximately 1 gram samples of thymol-treated and untreated coform substrates were placed in individual capped flasks containing approximately 10^5 CFU of a Staphylococcus aureus (ATCC #6538) in phosphate buffered saline. Flasks were shaken at maximum speed on a wrist-action shaker for 1 hour. […] The active agent thymol has volatilized off of the sample within the 7 day time period.

[3] = 0.3% thymol add-on to coform substrate
[4] = 0.6% thymol add-on to coform substrate
[5] = 1% thymol add-on to coform substrate

## Cc1ccc(C(C)C)c(O)c1 [Thymol, thymol]
[1]; [3]
  Observed Zone of Inhibition (mm): 0 mm
[1]; [4]
  Observed Zone of Inhibition (mm): 0 mm
[1]; [5]
  Observed Zone of Inhibition (mm): 0 mm
[1]; neat powder, various amounts, after 1 day
  zone of inhibition: 10-15 mm
[1]; weight 0.0018 grams
  Zone (mm): 10 mm
[1]; weight 0.0045 grams
  Zone (mm): 12 mm
[1]; weight 0.0353 grams
  Zone (mm): 13 mm
[1]; weight 0.0789 grams
  Zone (mm): 12 mm
[1]; weight 0.1609 grams
  Zone (mm): 15 mm
[2]; [3]
  Log10 Reduction of Bacteria: No Reduction
[2]; [4]
  Log10 Reduction of Bacteria: No Reduction
[2]; [5]
  Log10 Reduction of Bacteria: No Reduction
